How the values were obtained:
Type in all cases: functional, cell-based
[1] = system: Jurkat; test: In vitro test for antitumor activity against human Jurkat cell line using a formazan dye (MTT) conversion assay.
[2] = system: MOLT-4; test: Cytotoxicity was evaluated against Molt-4 tumor cell lines; conditions: Homo sapiens
[3] = system: NIH3T3; test: Cytotoxicity evaluated against NIH3T3 tumor cell lines; Significant activity; conditions: Mus musculus
[4] = system: NCI-H596; test: Cytotoxicity evaluated against H596 tumor cell lines; Significant activity; conditions: Homo sapiens
[5] = system: K562; test: Cytotoxicity evaluated against K562 tumor cell lines; Significant activity; conditions: Homo sapiens
[6] = system: CCRF-CEM; test: Cytotoxicity evaluated against CEM tumor cell lines; Significant activity; conditions: Homo sapiens
[7] = system: HL-60; test: Cytotoxicity evaluated against HL-60 tumor cell lines; Significant activity; conditions: Homo sapiens
[8] = system: WIL2; test: Cytotoxicity evaluated against WIL2 tumor cell lines; Significant activity; conditions: Homo sapiens
[9] = system: NCI-H292; test: Cytotoxicity evaluated against H292 tumor cell lines; Significant activity; conditions: Homo sapiens
[10] = system: B16; test: Cytotoxicity was evaluated against B16 tumor cell lines; Significant activity; conditions: Mus musculus
[11] = system: L1210; test: Cytotoxicity evaluated against L1210 tumor cell lines; Significant activity; conditions: Mus musculus
[12] = system: MCF7; test: Cytotoxicity evaluated against MCF-7 tumor cell lines; Significant activity; conditions: Homo sapiens
[13] = system: A549; test: Cytotoxicity evaluated against A549 tumor cell lines; significant activity; conditions: Homo sapiens
[14] = system: WI-38; test: Cytotoxicity evaluated against WI38 tumor cell lines; Significant activity; conditions: Homo sapiens

| SMILES | IC50 [1] | Cytotoxicity [2] | Cytotoxicity [3] | Cytotoxicity [4] | Cytotoxicity [5] | Cytotoxicity [6] | Cytotoxicity [7] | Cytotoxicity [8] | Cytotoxicity [9] | Cytotoxicity [10] | Cytotoxicity [11] | Cytotoxicity [12] | Cytotoxicity [13] | Cytotoxicity [14] |
| --- | --- | --- | --- | --- | --- | --- | --- | --- | --- | --- | --- | --- | --- | --- |
| COc1cc2c(cc1OC)C(=O)/C(=C/c1cc([N+](=O)[O-])cc([N+](=O)[O-])c1)CC2 | 2 µM | Significant activity | Significant activity | Significant activity | Significant activity | Significant activity | Significant activity | Significant activity | Significant activity | Significant activity | Significant activity | Significant activity | Significant activity | Significant activity |
| COc1ccc(OC)c(/C=C2\CCc3cc(OC)c(OC)cc3C2=O)c1 | 11 µM | Significant activity | Significant activity | Significant activity | Significant activity | Significant activity | Significant activity | Significant activity | Significant activity | Significant activity | Significant activity | Significant activity | Significant activity | Significant activity |
| COc1cc2c(c(OC)c1OC)C(=O)/C(=C/c1cc(C)c(O)c(C)c1)C2 | 0.125 µM | Significant activity | Significant activity | Significant activity | Significant activity | Significant activity | Significant activity | Significant activity | Significant activity | Significant activity | Significant activity | Significant activity | Significant activity | Significant activity |
| COc1cc(/C=C2\CCc3cc(OC)c(OC)cc3C2=O)cc(OC)c1 | 5 µM | Significant activity | Significant activity | Significant activity | Significant activity | Significant activity | Significant activity | Significant activity | Significant activity | Significant activity | Significant activity | Significant activity | Significant activity | Significant activity |
| CCOC(=O)COc1c(C)cc(/C=C2\Cc3cc(OC)c(OC)cc3C2=O)cc1C | 2.2 µM | Significant activity | Significant activity | Significant activity | Significant activity | Significant activity | Significant activity | Significant activity | Significant activity | Significant activity | Significant activity | Significant activity | Significant activity | Significant activity |
| COc1cc2c(cc1OC)C(=O)/C(=C/c1cc(I)cc(I)c1O)C2 | 2.5 µM | Significant activity | Significant activity | Significant activity | Significant activity | Significant activity | Significant activity | Significant activity | Significant activity | Significant activity | Significant activity | Significant activity | Significant activity | Significant activity |
| COc1cc2c(cc1OC)C(=O)/C(=C/c1cc(OC)c(OC)c(OC)c1)CC2 | > 50 µM | Significant activity | Significant activity | Significant activity | Significant activity | Significant activity | Significant activity | Significant activity | Significant activity | Significant activity | Significant activity | Significant activity | Significant activity | Significant activity |
| COc1cc2c(cc1OC)C(=O)/C(=C/c1cccc(C)c1)CC2 | 17 µM | Significant activity | Significant activity | Significant activity | Significant activity | Significant activity | Significant activity | Significant activity | Significant activity | Significant activity | Significant activity | Significant activity | Significant activity | Significant activity |
| COc1cc2c(cc1OC)C(=O)/C(=C/c1cc(C)ccc1C)CC2 | 6 µM | Significant activity | Significant activity | Significant activity | Significant activity | Significant activity | Significant activity | Significant activity | Significant activity | Significant activity | Significant activity | Significant activity | Significant activity | Significant activity |
| COc1cc2c(cc1OC)C(=O)/C(=C/c1cccc(C)c1)C2 | 1.8 µM | Significant activity | Significant activity | Significant activity | Significant activity | Significant activity | Significant activity | Significant activity | Significant activity | Significant activity | Significant activity | Significant activity | Significant activity | Significant activity |
| COc1cc2c(cc1OC)C(=O)/C(=C/c1cccc(Cl)c1)C2 | 8 µM | Significant activity | Significant activity | Significant activity | Significant activity | Significant activity | Significant activity | Significant activity | Significant activity | Significant activity | Significant activity | Significant activity | Significant activity | Significant activity |

Source: ChEMBL document CHEMBL1133412, “Rational design, synthesis and structure-activity relationships of antitumor (E)-2-benzylidene-1-tetralones and (E)-2-benzylidene-1-indanones” (Bioorg Med Chem Lett, 2000)
